Viability and MTD data for three molecules are collected here from patent US6645983B1, “Pharmaceutical compositions comprising 4-quinolones for treating cancers” (Laboratoire L. Lafon, priority 1999, dated 2003).

The subject of the first data set is J82. The data set is described as follows: MTT test, cytotoxic activity on non-clonogenic cell lines. Particulars: Homo sapiens, 10^−5 M, 72 hours of incubation, control condition = 100%, mean value, read-out: mean optical density as percentage of control, J82. The format is cell-based. An outline of the steps:
(§1)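 Human bladder cancer lines were seeded at 20 000–50 000 cells/ml and, after 24 h, exposed to compounds at 10^−5 to 10^−10 M against a solvent control. Formazan was dissolved in DMSO and viability was read by spectrophotometric optical density.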
With `COc1ccc(-c2cn(CC#N)c3c(OC)ccc(OC)c3c2=O)cc1` [CRL8413, [5,8-Dimethoxy-3-(4-methoxyphenyl)-4-oxo-1,4-dihydro-1-quinolinyl]acetonitrile], the viability at 10 µM is 88.4%.
Same read-out and setting: then `COc1ccc(-c2cn(CCCC#N)c3cc(OC)cc(OC)c3c2=O)cc1` [CRL8420, 4-[5,7-Dimethoxy-3-(4-methoxyphenyl)-4-oxo-1,4-dihydro-1-quinolinyl]butanenitrile], with 92.3%; and `COc1ccc(-c2c[nH]c3c(OC)ccc(OC)c3c2=O)cc1` [CRL8351, 5,8-Dimethoxy-3-(4-methoxyphenyl)-1,4-dihydro-4-quinolinone], with 39.2%.

Another data set concerns T24. The description is as above. The format is cell-based. Particulars: Homo sapiens, T-24; 10^−5 M, 72 hours of incubation, control condition = 100%, mean value; read-out: mean optical density as percentage of control, T24. An outline of the steps:
as §1
`COc1ccc(-c2cn(CC#N)c3c(OC)ccc(OC)c3c2=O)cc1` [CRL8413, [5,8-Dimethoxy-3-(4-methoxyphenyl)-4-oxo-1,4-dihydro-1-quinolinyl]acetonitrile]: the viability at 10 µM is 71.8%.
On to `COc1ccc(-c2cn(CCCC#N)c3cc(OC)cc(OC)c3c2=O)cc1` [CRL8420, 4-[5,7-Dimethoxy-3-(4-methoxyphenyl)-4-oxo-1,4-dihydro-1-quinolinyl]butanenitrile], for which the viability at 10 µM was 111%.
The same measure, in the same setting: then `COc1ccc(-c2c[nH]c3c(OC)ccc(OC)c3c2=O)cc1` [CRL8351, 5,8-Dimethoxy-3-(4-methoxyphenyl)-1,4-dihydro-4-quinolinone], with 38.4%.

The next data set has as its system A549. The data set is described as above. The note with it: Homo sapiens, 10^−5 M, 72 hours of incubation, control condition = 100%, mean value, read-out: mean optical density as percentage of control, A549. The format is cell-based. The gist of the method: (§2)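 Compounds span 10^−5 to 10^−10 M, with solvent-treated wells as control, and the formazan is quantified by absorbance after DMSO solubilization.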
As for `COc1ccc(-c2cn(CC#N)c3c(OC)ccc(OC)c3c2=O)cc1` [CRL8413, [5,8-Dimethoxy-3-(4-methoxyphenyl)-4-oxo-1,4-dihydro-1-quinolinyl]acetonitrile], the viability at 10 µM is 48.7%.
Take `COc1ccc(-c2cn(CCCC#N)c3cc(OC)cc(OC)c3c2=O)cc1` [CRL8420, 4-[5,7-Dimethoxy-3-(4-methoxyphenyl)-4-oxo-1,4-dihydro-1-quinolinyl]butanenitrile]: the viability at 10 µM was 94.5%.
Take `COc1ccc(-c2c[nH]c3c(OC)ccc(OC)c3c2=O)cc1` [CRL8351, 5,8-Dimethoxy-3-(4-methoxyphenyl)-1,4-dihydro-4-quinolinone]: the viability at 10 µM was determined as 34.6%.

A further data set relates to LoVo. Described as above. It is filed as cell-based. The note with it: Homo sapiens, 10^−5 M, 72 hours of incubation, control condition = 100%, mean value, read-out: mean optical density as percentage of control, LoVo. The gist of the method: as §2
Regarding `COc1ccc(-c2cn(CC#N)c3c(OC)ccc(OC)c3c2=O)cc1` [CRL8413, [5,8-Dimethoxy-3-(4-methoxyphenyl)-4-oxo-1,4-dihydro-1-quinolinyl]acetonitrile], the viability at 10 µM was 85.6%.
Same read-out and setting: then `COc1ccc(-c2cn(CCCC#N)c3cc(OC)cc(OC)c3c2=O)cc1` [CRL8420, 4-[5,7-Dimethoxy-3-(4-methoxyphenyl)-4-oxo-1,4-dihydro-1-quinolinyl]butanenitrile], with 81.2%.
The same measure, in the same setting: then `COc1ccc(-c2c[nH]c3c(OC)ccc(OC)c3c2=O)cc1` [CRL8351, 5,8-Dimethoxy-3-(4-methoxyphenyl)-1,4-dihydro-4-quinolinone], with 67%.

For the next data set, the system named is MCF7. The data set is described as above. It is filed as cell-based. The note with it: Homo sapiens, 10^−5 M, 72 hours of incubation, control condition = 100%, mean value, read-out: mean optical density as percentage of control, MCF7. The gist of the method: as §2
For `COc1ccc(-c2cn(CC#N)c3c(OC)ccc(OC)c3c2=O)cc1` [CRL8413, [5,8-Dimethoxy-3-(4-methoxyphenyl)-4-oxo-1,4-dihydro-1-quinolinyl]acetonitrile], the viability at 10 µM was 67.2%.
On the same count and under the same terms, under `COc1ccc(-c2cn(CCCC#N)c3cc(OC)cc(OC)c3c2=O)cc1` [CRL8420, 4-[5,7-Dimethoxy-3-(4-methoxyphenyl)-4-oxo-1,4-dihydro-1-quinolinyl]butanenitrile] stands 103%; under `COc1ccc(-c2c[nH]c3c(OC)ccc(OC)c3c2=O)cc1` [CRL8351, 5,8-Dimethoxy-3-(4-methoxyphenyl)-1,4-dihydro-4-quinolinone], 49%.

Another data set has as its system T-47D. Described as above. Particulars: Homo sapiens, T47D; 10^−5 M, 72 hours of incubation, control condition = 100%, mean value; read-out: mean optical density as percentage of control, T-47D. The format is cell-based. An outline of the steps: as §2
For `COc1ccc(-c2cn(CC#N)c3c(OC)ccc(OC)c3c2=O)cc1` [CRL8413, [5,8-Dimethoxy-3-(4-methoxyphenyl)-4-oxo-1,4-dihydro-1-quinolinyl]acetonitrile], the viability at 10 µM is 112%.
Take `COc1ccc(-c2cn(CCCC#N)c3cc(OC)cc(OC)c3c2=O)cc1` [CRL8420, 4-[5,7-Dimethoxy-3-(4-methoxyphenyl)-4-oxo-1,4-dihydro-1-quinolinyl]butanenitrile]: the viability at 10 µM was 104%.
Still for that read-out and setting: under `COc1ccc(-c2c[nH]c3c(OC)ccc(OC)c3c2=O)cc1` [CRL8351, 5,8-Dimethoxy-3-(4-methoxyphenyl)-1,4-dihydro-4-quinolinone] stands 55%.

Another data set has as its system HCT-15. The description is as above. It is filed as cell-based. Particulars: Homo sapiens, 10^−5 M, 72 hours of incubation, control condition = 100%, mean value, read-out: mean optical density as percentage of control, HCT-16. An outline of the steps:
as §2
Take `COc1ccc(-c2cn(CC#N)c3c(OC)ccc(OC)c3c2=O)cc1` [CRL8413, [5,8-Dimethoxy-3-(4-methoxyphenyl)-4-oxo-1,4-dihydro-1-quinolinyl]acetonitrile]: the viability at 10 µM was determined as 65.9%.
Same read-out and setting: then `COc1ccc(-c2cn(CCCC#N)c3cc(OC)cc(OC)c3c2=O)cc1` [CRL8420, 4-[5,7-Dimethoxy-3-(4-methoxyphenyl)-4-oxo-1,4-dihydro-1-quinolinyl]butanenitrile], with 109%.
Regarding `COc1ccc(-c2c[nH]c3c(OC)ccc(OC)c3c2=O)cc1` [CRL8351, 5,8-Dimethoxy-3-(4-methoxyphenyl)-1,4-dihydro-4-quinolinone], the viability at 10 µM came to 39.1%.

The next data set relates to U-87MG. The description is as above. The format is cell-based. Particulars: Homo sapiens, U-87 MG; 10^−5 M, 72 hours of incubation, control condition = 100%, mean value; read-out: mean optical density as percentage of control, U-87MG. The gist of the method:
as §2
Turning to `COc1ccc(-c2cn(CC#N)c3c(OC)ccc(OC)c3c2=O)cc1` [CRL8413, [5,8-Dimethoxy-3-(4-methoxyphenyl)-4-oxo-1,4-dihydro-1-quinolinyl]acetonitrile], the viability at 10 µM was 56%.
For the molecule `COc1ccc(-c2cn(CCCC#N)c3cc(OC)cc(OC)c3c2=O)cc1` [CRL8420, 4-[5,7-Dimethoxy-3-(4-methoxyphenyl)-4-oxo-1,4-dihydro-1-quinolinyl]butanenitrile], the viability at 10 µM turned out to be 92.9%.
On the same count and under the same terms, then `COc1ccc(-c2c[nH]c3c(OC)ccc(OC)c3c2=O)cc1` [CRL8351, 5,8-Dimethoxy-3-(4-methoxyphenyl)-1,4-dihydro-4-quinolinone], with 116%.

A further data set concerns U-373MG. The description is as above. The format is cell-based. Particulars: Homo sapiens, U373 MG; 10^−5 M, 72 hours of incubation, control condition = 100%, mean value; read-out: mean optical density as percentage of control, U-373MG. An outline of the steps:
as §2
`COc1ccc(-c2cn(CC#N)c3c(OC)ccc(OC)c3c2=O)cc1` [CRL8413, [5,8-Dimethoxy-3-(4-methoxyphenyl)-4-oxo-1,4-dihydro-1-quinolinyl]acetonitrile]: the viability at 10 µM was determined as 66.4%.
On the same count and under the same terms, then `COc1ccc(-c2cn(CCCC#N)c3cc(OC)cc(OC)c3c2=O)cc1` [CRL8420, 4-[5,7-Dimethoxy-3-(4-methoxyphenyl)-4-oxo-1,4-dihydro-1-quinolinyl]butanenitrile], with 96.6%; and `COc1ccc(-c2c[nH]c3c(OC)ccc(OC)c3c2=O)cc1` [CRL8351, 5,8-Dimethoxy-3-(4-methoxyphenyl)-1,4-dihydro-4-quinolinone], with 52.8%.

The test system of another data set is A-427. The data set is described as above. It is filed as cell-based. Particulars: Homo sapiens, 10^−5 M, 72 hours of incubation, control condition = 100%, mean value, read-out: mean optical density as percentage of control, A-427. The gist of the method:
as §2
As for `COc1ccc(-c2cn(CC#N)c3c(OC)ccc(OC)c3c2=O)cc1` [CRL8413, [5,8-Dimethoxy-3-(4-methoxyphenyl)-4-oxo-1,4-dihydro-1-quinolinyl]acetonitrile], the viability at 10 µM was 73.3%.
The same measure, in the same setting: under `COc1ccc(-c2cn(CCCC#N)c3cc(OC)cc(OC)c3c2=O)cc1` [CRL8420, 4-[5,7-Dimethoxy-3-(4-methoxyphenyl)-4-oxo-1,4-dihydro-1-quinolinyl]butanenitrile] stands 102%; under `COc1ccc(-c2c[nH]c3c(OC)ccc(OC)c3c2=O)cc1` [CRL8351, 5,8-Dimethoxy-3-(4-methoxyphenyl)-1,4-dihydro-4-quinolinone], 33.7%.

Another data set has as its system PC-3. The data set is described as above. The note with it: Homo sapiens, 10^−5 M, 72 hours of incubation, control condition = 100%, mean value, read-out: mean optical density as percentage of control, PC-3. The format is cell-based. The gist of the method: as §2
As for `COc1ccc(-c2cn(CC#N)c3c(OC)ccc(OC)c3c2=O)cc1` [CRL8413, [5,8-Dimethoxy-3-(4-methoxyphenyl)-4-oxo-1,4-dihydro-1-quinolinyl]acetonitrile], the viability at 10 µM was 63.4%.
Same read-out and setting: then `COc1ccc(-c2cn(CCCC#N)c3cc(OC)cc(OC)c3c2=O)cc1` [CRL8420, 4-[5,7-Dimethoxy-3-(4-methoxyphenyl)-4-oxo-1,4-dihydro-1-quinolinyl]butanenitrile], with 86%; and `COc1ccc(-c2c[nH]c3c(OC)ccc(OC)c3c2=O)cc1` [CRL8351, 5,8-Dimethoxy-3-(4-methoxyphenyl)-1,4-dihydro-4-quinolinone], with 83.2%.

Tested on in a further data set: not listed separately
The data set is described as follows: Determination of the maximum tolerated dose (MTD). Particulars: B6D2F1/Jico, mouse, in vivo, ip; single intraperitoneal administration, doses 2.5 to 160 mg/kg, survival over 14 days. The gist of the method:
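Mice were 4- to 6-week-old B6D2F1/Jico. They received a single intraperitoneal dose of 2.5 to 160 mg/kg, and survival and body weight were followed for 14 days. MTD is given in mg/kg and is capped at 160 mg/kg by default.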
As usually defined, the MTD is the highest dose tested that stayed within the study's limit of toxicity. Low values mean poorer tolerability, high ones better tolerability. In turn, `COc1ccc(-c2cn(CC#N)c3c(OC)ccc(OC)c3c2=O)cc1` [CRL8413, [5,8-Dimethoxy-3-(4-methoxyphenyl)-4-oxo-1,4-dihydro-1-quinolinyl]acetonitrile] had a maximum tolerated dose (MTD) at 14 day above 160 mg/kg.
On the same count and under the same terms, under `COc1ccc(-c2cn(CCCC#N)c3cc(OC)cc(OC)c3c2=O)cc1` [CRL8420, 4-[5,7-Dimethoxy-3-(4-methoxyphenyl)-4-oxo-1,4-dihydro-1-quinolinyl]butanenitrile] stands above 160 mg/kg; under `COc1ccc(-c2c[nH]c3c(OC)ccc(OC)c3c2=O)cc1` [CRL8351, 5,8-Dimethoxy-3-(4-methoxyphenyl)-1,4-dihydro-4-quinolinone], 40 mg/kg.

The subject of a further data set is SW1088. Description: MTT test, cytotoxic activity on non-clonogenic cell lines. It is filed as cell-based. Particulars: Homo sapiens, 10^−5 M, 72 hours of incubation, control condition = 100%, mean value, read-out: mean optical density as percentage of control, SW1088. An outline of the steps: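 Human astrocytoma SW1088 cells seeded, grown 24 h at 37° C, 5% CO2, then exposed to compounds at 10^−5 to 10^−10 M versus solvent control. Viability by MTT reduction: 3 h MTT incubation, formazan dissolved in DMSO and read by spectrophotometry.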
(In general: Formazan colour is commonly taken as a measure of viable cells.)
On to `COc1ccc(-c2cn(CC#N)c3c(OC)ccc(OC)c3c2=O)cc1` [CRL8413, [5,8-Dimethoxy-3-(4-methoxyphenyl)-4-oxo-1,4-dihydro-1-quinolinyl]acetonitrile], for which the viability at 10 µM amounted to 83.7%.
Still for that read-out and setting: then `COc1ccc(-c2cn(CCCC#N)c3cc(OC)cc(OC)c3c2=O)cc1` [CRL8420, 4-[5,7-Dimethoxy-3-(4-methoxyphenyl)-4-oxo-1,4-dihydro-1-quinolinyl]butanenitrile], with 117%.
Still for that read-out and setting: under `COc1ccc(-c2c[nH]c3c(OC)ccc(OC)c3c2=O)cc1` [CRL8351, 5,8-Dimethoxy-3-(4-methoxyphenyl)-1,4-dihydro-4-quinolinone] stands 82.3%.
